Laboratory results as given in ChEMBL document CHEMBL4507268 (2021).

Experiments:
Conditions in all cases: Compound concentration 1.0 uM
[1] = target: T1, Serine/threonine-protein kinase Chk1 (Homo sapiens) (UniProt O14757)
T1 sequence (whole entry): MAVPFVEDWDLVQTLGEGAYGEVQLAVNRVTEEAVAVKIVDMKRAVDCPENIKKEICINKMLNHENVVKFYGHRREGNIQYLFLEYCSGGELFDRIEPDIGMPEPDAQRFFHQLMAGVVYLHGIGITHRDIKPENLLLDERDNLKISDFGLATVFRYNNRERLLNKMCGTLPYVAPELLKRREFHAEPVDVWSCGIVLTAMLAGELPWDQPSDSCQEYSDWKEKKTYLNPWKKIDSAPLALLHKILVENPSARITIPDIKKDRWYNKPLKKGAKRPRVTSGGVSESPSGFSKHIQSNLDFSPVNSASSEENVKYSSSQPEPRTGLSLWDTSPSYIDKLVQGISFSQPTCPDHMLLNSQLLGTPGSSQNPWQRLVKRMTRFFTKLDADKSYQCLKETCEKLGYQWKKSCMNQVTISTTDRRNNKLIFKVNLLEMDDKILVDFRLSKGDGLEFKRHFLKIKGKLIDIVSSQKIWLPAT

[2] = target: Dual specificity protein kinase CLK1 (Homo sapiens) (UniProt P49759)
Sequence of Dual specificity protein kinase CLK1 (Homo sapiens) (P49759 whole entry, looked up): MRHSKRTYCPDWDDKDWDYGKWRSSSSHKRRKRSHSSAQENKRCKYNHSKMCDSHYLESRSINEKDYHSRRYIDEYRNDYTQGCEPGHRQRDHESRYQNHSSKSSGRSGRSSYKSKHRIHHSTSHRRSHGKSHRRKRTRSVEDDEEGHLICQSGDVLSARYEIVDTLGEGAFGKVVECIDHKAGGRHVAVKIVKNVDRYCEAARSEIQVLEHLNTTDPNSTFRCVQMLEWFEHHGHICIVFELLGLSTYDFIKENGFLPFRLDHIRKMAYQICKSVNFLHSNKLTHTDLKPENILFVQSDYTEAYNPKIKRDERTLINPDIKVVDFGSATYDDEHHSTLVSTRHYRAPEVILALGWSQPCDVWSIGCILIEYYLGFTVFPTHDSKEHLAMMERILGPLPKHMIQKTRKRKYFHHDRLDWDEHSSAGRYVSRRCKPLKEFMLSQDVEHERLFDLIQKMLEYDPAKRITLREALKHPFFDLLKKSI

[3] = target: Serine/threonine-protein kinase MARK2 (Homo sapiens) (UniProt Q7KZI7)
[4] = target: High affinity nerve growth factor receptor (Homo sapiens) (UniProt P04629)
Sequence of High affinity nerve growth factor receptor (Homo sapiens) (P04629 33-796 limits assumed): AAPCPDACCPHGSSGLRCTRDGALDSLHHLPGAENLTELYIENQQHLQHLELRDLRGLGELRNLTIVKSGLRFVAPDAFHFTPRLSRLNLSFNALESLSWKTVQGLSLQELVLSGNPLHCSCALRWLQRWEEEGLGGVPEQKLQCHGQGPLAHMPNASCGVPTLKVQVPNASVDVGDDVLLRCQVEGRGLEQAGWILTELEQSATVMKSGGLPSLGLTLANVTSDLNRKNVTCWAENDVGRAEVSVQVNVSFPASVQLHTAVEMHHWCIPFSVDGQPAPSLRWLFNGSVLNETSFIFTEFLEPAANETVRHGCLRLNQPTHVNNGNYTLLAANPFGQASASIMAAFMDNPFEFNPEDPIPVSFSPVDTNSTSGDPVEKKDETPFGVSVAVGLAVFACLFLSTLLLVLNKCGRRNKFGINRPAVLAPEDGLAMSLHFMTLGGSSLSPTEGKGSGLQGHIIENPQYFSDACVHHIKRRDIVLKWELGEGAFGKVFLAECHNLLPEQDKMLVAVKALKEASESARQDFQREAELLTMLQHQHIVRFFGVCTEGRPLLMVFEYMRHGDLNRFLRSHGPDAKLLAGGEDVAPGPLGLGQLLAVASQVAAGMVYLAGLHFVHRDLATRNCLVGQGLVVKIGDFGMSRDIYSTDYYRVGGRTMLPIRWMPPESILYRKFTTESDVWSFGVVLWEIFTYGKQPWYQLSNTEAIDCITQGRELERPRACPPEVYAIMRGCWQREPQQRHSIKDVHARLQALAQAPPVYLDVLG

[5] = target: T2, MAP kinase-activated protein kinase 5 (Homo sapiens) (UniProt Q8IW41)
T2 sequence (whole entry): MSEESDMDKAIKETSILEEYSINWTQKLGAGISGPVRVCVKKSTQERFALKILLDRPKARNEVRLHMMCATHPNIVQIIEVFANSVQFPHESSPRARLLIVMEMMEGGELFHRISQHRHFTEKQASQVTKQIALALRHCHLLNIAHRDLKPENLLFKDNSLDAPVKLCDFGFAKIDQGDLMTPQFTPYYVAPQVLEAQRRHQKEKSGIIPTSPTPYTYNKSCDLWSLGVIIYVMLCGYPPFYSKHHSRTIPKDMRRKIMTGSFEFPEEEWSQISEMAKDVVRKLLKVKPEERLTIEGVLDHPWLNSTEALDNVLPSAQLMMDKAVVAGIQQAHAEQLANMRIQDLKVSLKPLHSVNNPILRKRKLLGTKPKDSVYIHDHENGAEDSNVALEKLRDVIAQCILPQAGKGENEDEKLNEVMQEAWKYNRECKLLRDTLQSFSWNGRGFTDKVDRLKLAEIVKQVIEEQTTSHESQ

[6] = target: T3, Calcium/calmodulin-dependent protein kinase type IV (Homo sapiens) (UniProt Q16566)
T3 sequence (whole entry): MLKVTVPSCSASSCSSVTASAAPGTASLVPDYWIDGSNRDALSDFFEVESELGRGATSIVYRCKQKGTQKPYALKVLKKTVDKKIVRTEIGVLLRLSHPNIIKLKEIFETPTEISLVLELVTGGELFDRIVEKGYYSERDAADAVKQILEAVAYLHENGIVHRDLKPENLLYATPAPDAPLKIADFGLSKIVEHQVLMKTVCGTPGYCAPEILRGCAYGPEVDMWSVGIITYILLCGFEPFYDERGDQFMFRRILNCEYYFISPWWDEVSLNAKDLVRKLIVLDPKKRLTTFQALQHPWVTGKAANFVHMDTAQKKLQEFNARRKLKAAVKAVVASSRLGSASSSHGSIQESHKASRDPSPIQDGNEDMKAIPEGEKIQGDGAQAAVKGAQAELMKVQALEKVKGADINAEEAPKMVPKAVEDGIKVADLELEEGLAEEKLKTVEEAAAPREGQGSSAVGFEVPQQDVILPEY

[7] = target: Serine/threonine-protein kinase PAK 2 (Homo sapiens) (UniProt Q13177)
Sequence of Serine/threonine-protein kinase PAK 2 (Homo sapiens) (Q13177 whole entry): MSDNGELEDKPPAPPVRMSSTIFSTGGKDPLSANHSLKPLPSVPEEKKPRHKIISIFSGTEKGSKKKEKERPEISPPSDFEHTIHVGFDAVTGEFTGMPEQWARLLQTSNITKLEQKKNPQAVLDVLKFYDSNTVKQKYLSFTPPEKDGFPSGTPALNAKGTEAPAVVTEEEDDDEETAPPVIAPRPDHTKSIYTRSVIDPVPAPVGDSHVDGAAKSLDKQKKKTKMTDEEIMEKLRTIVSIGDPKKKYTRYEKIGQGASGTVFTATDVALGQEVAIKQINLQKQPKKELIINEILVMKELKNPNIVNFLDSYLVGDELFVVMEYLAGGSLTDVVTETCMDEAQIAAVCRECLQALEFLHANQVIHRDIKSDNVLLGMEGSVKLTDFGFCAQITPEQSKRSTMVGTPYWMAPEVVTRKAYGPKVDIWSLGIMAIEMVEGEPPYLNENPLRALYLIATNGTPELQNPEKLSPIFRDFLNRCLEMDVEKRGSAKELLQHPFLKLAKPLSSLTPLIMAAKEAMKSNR

[8] = target: Misshapen-like kinase 1 (Homo sapiens) (UniProt Q8N4C8)
Sequence of Misshapen-like kinase 1 (Homo sapiens) (Q8N4C8 whole entry, looked up): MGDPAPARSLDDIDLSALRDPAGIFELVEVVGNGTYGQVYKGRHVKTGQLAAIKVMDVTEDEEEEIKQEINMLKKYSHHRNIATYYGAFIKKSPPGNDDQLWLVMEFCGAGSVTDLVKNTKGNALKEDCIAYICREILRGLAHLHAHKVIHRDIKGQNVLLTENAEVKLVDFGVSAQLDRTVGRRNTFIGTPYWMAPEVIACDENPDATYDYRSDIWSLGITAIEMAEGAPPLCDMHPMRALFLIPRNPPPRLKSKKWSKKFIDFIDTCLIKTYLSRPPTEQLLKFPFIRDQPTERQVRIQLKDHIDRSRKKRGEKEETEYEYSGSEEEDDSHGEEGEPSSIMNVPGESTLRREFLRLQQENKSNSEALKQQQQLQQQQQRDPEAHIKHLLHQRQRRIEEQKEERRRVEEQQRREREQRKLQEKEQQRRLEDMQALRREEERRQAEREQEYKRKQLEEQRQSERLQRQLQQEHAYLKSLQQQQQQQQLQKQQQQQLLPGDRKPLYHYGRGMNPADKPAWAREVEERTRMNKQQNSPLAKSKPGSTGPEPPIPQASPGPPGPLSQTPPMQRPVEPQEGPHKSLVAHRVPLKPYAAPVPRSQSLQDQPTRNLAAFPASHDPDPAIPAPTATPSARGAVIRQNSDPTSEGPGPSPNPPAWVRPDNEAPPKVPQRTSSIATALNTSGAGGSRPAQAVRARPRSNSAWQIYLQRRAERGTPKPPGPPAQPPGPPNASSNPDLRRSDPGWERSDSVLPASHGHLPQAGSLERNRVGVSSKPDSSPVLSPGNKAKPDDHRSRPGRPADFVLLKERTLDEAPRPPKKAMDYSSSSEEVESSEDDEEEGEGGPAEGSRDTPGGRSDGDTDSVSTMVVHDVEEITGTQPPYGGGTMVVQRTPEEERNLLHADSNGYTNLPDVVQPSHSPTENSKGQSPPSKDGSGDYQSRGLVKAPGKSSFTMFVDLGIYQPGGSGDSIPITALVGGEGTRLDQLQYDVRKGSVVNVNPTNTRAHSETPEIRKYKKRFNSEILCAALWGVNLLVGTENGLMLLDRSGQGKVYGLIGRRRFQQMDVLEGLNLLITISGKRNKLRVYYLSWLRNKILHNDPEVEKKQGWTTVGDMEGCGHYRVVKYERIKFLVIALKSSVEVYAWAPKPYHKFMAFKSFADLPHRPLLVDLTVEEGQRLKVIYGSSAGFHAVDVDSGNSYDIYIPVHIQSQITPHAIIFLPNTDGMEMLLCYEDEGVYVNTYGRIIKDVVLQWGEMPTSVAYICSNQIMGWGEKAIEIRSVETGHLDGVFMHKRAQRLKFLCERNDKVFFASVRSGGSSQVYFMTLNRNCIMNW

[9] = target: Tyrosine-protein kinase HCK (Homo sapiens) (UniProt P08631)
Sequence of Tyrosine-protein kinase HCK (Homo sapiens) (P08631 2-526 limits assumed): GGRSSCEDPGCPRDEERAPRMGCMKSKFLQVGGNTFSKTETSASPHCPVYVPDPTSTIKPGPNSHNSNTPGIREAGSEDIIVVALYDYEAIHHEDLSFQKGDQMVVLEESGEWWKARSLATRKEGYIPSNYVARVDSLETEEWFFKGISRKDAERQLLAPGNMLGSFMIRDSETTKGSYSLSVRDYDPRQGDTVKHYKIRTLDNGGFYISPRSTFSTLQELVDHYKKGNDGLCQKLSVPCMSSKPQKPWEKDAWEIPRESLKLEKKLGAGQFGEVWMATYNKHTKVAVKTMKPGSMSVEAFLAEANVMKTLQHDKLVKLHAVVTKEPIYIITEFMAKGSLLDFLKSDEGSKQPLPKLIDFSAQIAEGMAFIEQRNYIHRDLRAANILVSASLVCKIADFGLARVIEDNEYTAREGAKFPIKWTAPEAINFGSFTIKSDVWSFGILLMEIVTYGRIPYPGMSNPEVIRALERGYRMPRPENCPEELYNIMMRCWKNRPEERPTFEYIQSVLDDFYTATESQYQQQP

[10] = target: BDNF/NT-3 growth factors receptor (Homo sapiens) (UniProt Q16620)
Sequence of BDNF/NT-3 growth factors receptor (Homo sapiens) (Q16620 32-822 limits assumed): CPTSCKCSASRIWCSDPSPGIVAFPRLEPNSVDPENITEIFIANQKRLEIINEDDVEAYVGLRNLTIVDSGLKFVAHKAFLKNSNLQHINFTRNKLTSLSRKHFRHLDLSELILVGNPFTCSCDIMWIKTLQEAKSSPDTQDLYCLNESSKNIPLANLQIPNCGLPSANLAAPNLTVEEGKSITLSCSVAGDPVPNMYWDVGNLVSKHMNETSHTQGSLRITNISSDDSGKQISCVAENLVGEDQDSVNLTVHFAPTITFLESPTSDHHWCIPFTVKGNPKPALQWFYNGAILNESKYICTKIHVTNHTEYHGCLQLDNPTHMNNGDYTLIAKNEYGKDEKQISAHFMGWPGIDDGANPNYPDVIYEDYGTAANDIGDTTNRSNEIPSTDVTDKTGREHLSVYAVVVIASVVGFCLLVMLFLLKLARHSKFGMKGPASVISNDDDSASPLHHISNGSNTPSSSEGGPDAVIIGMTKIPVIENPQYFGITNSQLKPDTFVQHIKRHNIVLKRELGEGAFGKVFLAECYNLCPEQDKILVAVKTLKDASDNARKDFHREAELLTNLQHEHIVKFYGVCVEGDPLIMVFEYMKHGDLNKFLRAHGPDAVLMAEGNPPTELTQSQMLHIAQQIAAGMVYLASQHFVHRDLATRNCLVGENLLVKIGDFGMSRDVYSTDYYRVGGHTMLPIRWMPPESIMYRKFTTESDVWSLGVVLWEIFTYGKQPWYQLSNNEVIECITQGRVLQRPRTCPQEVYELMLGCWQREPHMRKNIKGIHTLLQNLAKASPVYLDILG

[11] = target: CDK9/cyclin T1 (Homo sapiens) (UniProt O60563+P50750)
[12] = target: T4, Serine/threonine-protein kinase Sgk3 (Homo sapiens) (UniProt Q96BR1)
T4 sequence (whole entry): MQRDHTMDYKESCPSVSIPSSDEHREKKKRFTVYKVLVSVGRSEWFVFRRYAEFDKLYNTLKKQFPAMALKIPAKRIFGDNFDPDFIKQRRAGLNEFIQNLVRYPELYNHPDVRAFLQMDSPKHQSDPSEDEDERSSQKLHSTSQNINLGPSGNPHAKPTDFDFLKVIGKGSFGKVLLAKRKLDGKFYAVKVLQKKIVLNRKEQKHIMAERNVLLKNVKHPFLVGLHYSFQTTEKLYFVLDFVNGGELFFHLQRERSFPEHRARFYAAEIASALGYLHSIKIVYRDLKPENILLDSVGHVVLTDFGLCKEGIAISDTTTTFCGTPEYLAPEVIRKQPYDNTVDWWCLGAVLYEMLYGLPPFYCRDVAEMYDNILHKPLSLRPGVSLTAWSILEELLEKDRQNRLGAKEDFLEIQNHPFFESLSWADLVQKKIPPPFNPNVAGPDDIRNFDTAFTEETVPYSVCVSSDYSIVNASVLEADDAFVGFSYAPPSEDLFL

Measured: % residual kinase activity

CN1CCN(c2cnc3c(C4CCN(C(=O)c5ccc(OC(F)(F)F)cc5N)CC4)ncnc3c2)CC1 [BAY-885]
inactive: [1] 89% | [2] 105% | [3] 113% | [4] 110% | [5] 109% | [6] 96% | [7] 108% | [8] 98% | [9] 95% | [10] 98% | [11] 103% | [12] 104%
